Experimental data published in patent US20150024955A1, “Methods of Identifying Modulators of Dephosphorylation of Histone Deacetylase” (THE J. DAVID GLADSTONE INSTITUTES, priority 2006, published 2015).

Columns and labels:
[1] = tested on: HDAC7 (Ser155, Ser318, Ser448 phosphorylation); assay: HDAC7 phosphorylation by Western blot with antiphospho-HDAC7 antisera in DO11.10-HDAC7-Flag cells; type: cell-based, human
Procedure: DO11.10-HDAC7-Flag cells were untreated or treated with either PMA or anti CD3 antibody for the indicated times. Total cellular extracts were prepared in 20 mM Hepes (pH 7.5), 10 mM EGTA, 22.5 mM MgCl2, 1% NP-40, 2 mM orthovanadate, 1 mM dithiothreitol, and 0.5 mM phenyl-methyl sulfonyl fluoride supplemented with protease inhibitors, and subjected to Western blot analysis.
Antibodies against mouse HDAC7 phosphorylated at serine residues 178, 344 and 479 were generated (Sigma Genosys, INC., Houston Tex. 77216-1508, USA). Briefly, rabbits were immunized with KLH-conjugated peptides. The phosphopeptides used to generate the phosphor-specific antibodies were FPLRTV[pSer]EPNLKL for P-Ser178, RPLNRTR[pSer]EPLPPS for P-Ser344 and RPLSRTQ[pSer]SPAAPV for P-Ser479. [pSer] indicates the phosphate group on the conserved serine residues. HDAC7 phospho specific antibodies were purified from crude rabbit serum by double affinity purification with nonphosphorylated and phosphorylated peptide. The corresponding serine residues can be found in human HDAC7 at amino acid positions 155, 318, and 448, respectively.
Using these antisera, the state of phosphorylation of HDAC7 following PMA treatment was assessed. […] Phosphatase treatment of immunoprecipitated HDAC7 abolished the reactivity of the different phosphor-HDAC7 antibodies confirming their specificity for phosphorylated HDAC7 (FIG. 6A).
To test the possibility that HDAC7 became dephosphorylated by a phosphatase, cells were stimulated with PMA followed by the addition of okadaic acid, a phosphatase inhibitor, for the rest of the time course. Consistent with the hypothesis that HDAC7 is dephosphorylated by a phosphatase, okadaic acid treatment led to persistent phosphorylation of HDAC7 at each site up to 24 h (FIG. 6B).
To further probe the role of myosin phosphatase in the dephosphorylation of HDAC7 in vivo, small interfering RNAs (siRNAs) specific for PP1β and MYPT1 were introduced into DO11.10 cells expressing HDAC7. With an siRNA control (siCo), HDAC7 was transiently phosphorylated in response to PMA, with a peak at 2 h, and rapidly dephosphorylated thereafter (FIG. 11B, left panel). […] Further, HDAC7 remained phosphorylated up to 8 h after PMA stimulation (FIG. 11B, right panel).

[2] = tested on: Nur77; assay: Nur77 expression by Western blot in DO11.10 cells; conditions: after PMA treatment
Procedure: SDS-PAGE and Western blot analysis were performed according to standard procedures. Western blots were developed with the ECL detection kit (Amersham Pharmacia Biotech, Piscataway, N.J.).

[3] = tested on: HDAC7-GFP; assay: HDAC7-GFP subcellular localization by immunofluorescence microscopy in DO11.10 cells; type: cell-based
Procedure: DO11.10 cells (5×10^6) were nucleofected with an HDAC7-GFP expression vector together with either siRNA control or siRNAs for PP1β and MYPT1. Cells ([…]) were seeded onto poly-L-lysine-coated coverslips 12 h after nucleofection and allowed to attach for 12 h. Cells were stimulated with 10 ng/ml PMA. HDAC7 was localized by immunofluorescence microscopy with a confocal fluorescence microscope (Olympus BX60, Bio-Rad).
To determine whether the changes in HDAC7 phosphorylation affected the subcellular localization of the protein, the fate of an HDAC7-GFP fusion protein in response to PMA was followed. […] The subcellular localization of HDAC7 also closely paralleled serine 155, serine 318, and serine 448 phosphorylation. While resting cells […] nuclear exclusion of HDAC7, more than 75% of activated cells excluded HDAC7 from the nucleus at 2 hours after stimulation (FIG. 7A). However, this exclusion was transient and HDAC7 progressively returned to the nucleus over the next few hours (FIGS. 7A, 7B). Significant reimport of HDAC7-GFP into the nucleus occurred at 4 h after PMA treatment, a time course that paralleled HDAC7 dephosphorylation (FIGS. 7A, 7B). […] Phosphatases have been predicted to regulate the nucleo-cytoplasmic shuttling of other class IIa HDAC, such as HDAC4, 5, and 9 for some time but have not been identified so far. […]

SMILES: CCCCCCCCCCCCCC(=O)O[C@@H]1[C@@H](C)[C@@]2(O)[C@@H](C=C(CO)C[C@]3(O)C(=O)C(C)=C[C@@H]23)[C@@H]2C(C)(C)[C@]12OC(C)=O [PMA]
- HDAC7 phosphorylation at each serine after treatment ([1]; DO11.10 stably expressing HDAC7-Flag, Western blot of immunoprecipitated HDAC7): increased HDAC7 phosphorylation at each serine
- start of progressive decrease in HDAC7 phosphorylation after treatment ([1]; all three serine residues, total HDAC7 content unchanged): 4 h
- time of maximum (full) HDAC7 phosphorylation after stimulation ([1]; time course, DO11.10-HDAC7-Flag cells): 1 to 2 h
- time of peak Nur77 induction [2]: 2 h
- percentage of cells excluding HDAC7 from the nucleus ([3]; 2 hours after stimulation): more than 75%
- percentage of cells showing nuclear exclusion of HDAC7 ([3]; 24 hours after stimulation): < 20%

SMILES: C=C1[C@@H](O)[C@@H]2O[C@]3(CC[C@H](/C=C/[C@@H](C)[C@@H]4CC(C)=C[C@@]5(O[C@H](C[C@@](C)(O)C(=O)O)CC[C@H]5O)O4)O3)CC[C@H]2O[C@@H]1[C@@H](O)C[C@H](C)[C@H]1O[C@@]2(CCCCO2)CC[C@H]1C [okadaic acid]
- time up to which HDAC7 remained phosphorylated after PMA stimulation ([1]; agent applied together with PMA stimulation, DO11.10-HDAC7-Flag cells): up to 24 h
